# Laboratory results from publication PMC8787483 (mBio, 2022).
# Biological target: Gnp2 (CR_09920W) (Candida albicans, UniProt A0A1D8PU37)
# Conditions: 10 mM proline as sole carbon source, YNB, ammonium sulfate, pH 4.5, 37 °C, 6 h
# Chain of Gnp2 (CR_09920W) (A0A1D8PU37 entry or part of it): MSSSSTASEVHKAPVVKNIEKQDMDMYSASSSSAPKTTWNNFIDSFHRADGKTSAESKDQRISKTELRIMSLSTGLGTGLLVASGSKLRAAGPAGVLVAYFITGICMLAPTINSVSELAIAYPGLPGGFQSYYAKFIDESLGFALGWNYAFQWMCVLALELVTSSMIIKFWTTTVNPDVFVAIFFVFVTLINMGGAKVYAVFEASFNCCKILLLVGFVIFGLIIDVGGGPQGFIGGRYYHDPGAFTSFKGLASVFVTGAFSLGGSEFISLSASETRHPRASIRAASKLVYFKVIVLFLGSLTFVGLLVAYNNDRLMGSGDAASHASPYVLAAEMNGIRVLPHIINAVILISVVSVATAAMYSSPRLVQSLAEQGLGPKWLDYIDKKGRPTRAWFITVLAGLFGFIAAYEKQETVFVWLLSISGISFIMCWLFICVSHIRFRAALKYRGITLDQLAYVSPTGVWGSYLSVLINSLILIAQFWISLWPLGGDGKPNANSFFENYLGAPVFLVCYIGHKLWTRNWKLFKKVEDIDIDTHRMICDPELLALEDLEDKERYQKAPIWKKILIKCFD
smiles,measurement,value
O=C(O)[C@@H]1CCCN1 [proline],"LC-MS of extracellular proline, wild type vs gnp2 deletion vs complemented cells",extracellular proline concentration was significantly reduced in the wild type and the GNP2 complemented strain
